For this series, the system named is rodent carcinogenicity bioassays, tumor incidence. The experiment in a line: CCRIS carcinogenicity studies. The source says: The CCRIS database contains chemical records with carcinogenicity, mutagenicity, tumor promotion, and tumor inhibition test results. It was developed by the National Cancer Institute (NCI). Data are derived from studies cited in primary journals, current awareness tools, NCI reports, and other sources. Test results have been reviewed by experts in carcinogenesis and mutagenesis.
CCRIS provides historical information from the years 1985 - 2011. It is no longer updated.
This is an archive assay for CCRIS carcinogenicity studies.

Each structure is given as a SMILES string. Calls of active or inactive are those of the source. The rule behind the calls is not given here.

In the case of `NCC1(CC(=O)O)CCCCC1`, the carcinogen call (Species: RAT, Strain/Sex: WISTAR/FEMALE, Route: ORAL, Dose: 0, 250, 1000, 2000 MG/KG IN DIET FOR 104 WK (STUDY DURATION: 104 WK), Dose: 0, 250, 1000, 2000 MG/KG IN DIET FOR 104 WK (STUDY DURATION: 104 WK)) was “inactive; negative” and the carcinogen call (Species: RAT, Strain/Sex: WISTAR/MALE, Route: ORAL, Dose: 0, 250, 1000, 2000 MG/KG IN DIET FOR 104 WK (STUDY DURATION: 104 WK), Dose: 0, 250, 1000, 2000 MG/KG IN DIET FOR 104 WK (STUDY DURATION: 104 WK), Tumor Site: Type of Lesion: PANCREAS: ACINAR CELL ADENOMA, ACINAR CELL CARCINOMA) is “active; positive”.

In the case of `CCOc1ccc(N(O)C(C)=O)cc1`, the carcinogen call (Species: RAT, Strain/Sex: ALBINO/MALE, Route: ORAL, Dose: 0.05, 0.1, 0.5% IN DIET, Dose: 0.05, 0.1, 0.5% IN DIET, Tumor Site: Type of Lesion: LIVER: HEPATOCELLULAR CARCINOMA) is “active; positive”.

As to `Cc1ccc(N)cc1Cl`, the carcinogen call by setting is: (Species: MOUSE, Strain/Sex: B6C3F1/FEMALE, Route: ORAL, Dose: 0, 300, 600 PPM IN DIET, Dose: 0, 300, 600 PPM IN DIET) “inactive; negative”; (Species: MOUSE, Strain/Sex: B6C3F1/MALE, Route: ORAL, Dose: 0, 600, 1200 PPM IN DIET, Dose: 0, 600, 1200 PPM IN DIET) “inactive; negative”; (Species: RAT, Strain/Sex: F344/FEMALE, Route: ORAL, Dose: 0, 1635, 3269 PPM IN DIET, TWA, Dose: 0, 1635, 3269 PPM IN DIET, TWA) “inactive; negative”; (Species: RAT, Strain/Sex: F344/MALE, Route: ORAL, Dose: 0, 1635, 3269 PPM IN DIET, TWA, Dose: 0, 1635, 3269 PPM IN DIET, TWA) “inactive; negative”.

In the case of `FC(F)=C(F)F`, the carcinogen call runs as follows: (Species: MOUSE, Strain/Sex: B6C3F1/FEMALE, Route: INHALATION, Dose: 0, 312, 625, 1250 PPM 6 HR/D 5 D/WK FOR 95-96 WK (STUDY DURATION: 96 WK), Dose: 0, 312, 625, 1250 PPM 6 HR/D 5 D/WK FOR 95-96 WK (STUDY DURATION: 96 WK), Tumor Site: Type of Lesion: LIVER: HEMANGIOMA, HEMANGIOSARCOMA, HEPATOCELLULAR CARCINOMA, HEMATOPOIETIC SYSTEM: HISTIOCYTIC SARCOMA) “active; positive”; (Species: MOUSE, Strain/Sex: B6C3F1/MALE, Route: INHALATION, Dose: 0, 312, 625, 1250 PPM 6 HR/D 5 D/WK FOR 95-96 WK (STUDY DURATION: 96 WK), Dose: 0, 312, 625, 1250 PPM 6 HR/D 5 D/WK FOR 95-96 WK (STUDY DURATION: 96 WK), Tumor Site: Type of Lesion: LIVER: HEMANGIOMA, HEMANGIOSARCOMA, HEPATOCELLULAR CARCINOMA, HEMATOPOIETIC SYSTEM: HISTIOCYTIC SARCOMA) “active; positive”; (Species: RAT, Strain/Sex: F344/FEMALE, Route: INHALATION, Dose: 0, 312, 625, 1250 PPM 6 HR/D 5 D/WK FOR 104 WK (STUDY DURATION: 106 WK), Dose: 0, 312, 625, 1250 PPM 6 HR/D 5 D/WK FOR 104 WK (STUDY DURATION: 106 WK), Tumor Site: Type of Lesion: KIDNEY(RENAL TUBULE): ADENOMA, ADENOMA OR CARCINOMA, LIVER: HEMANGIOSARCOMA, HEPATOCELLULAR ADENOMA, HEPATOCELLULAR CARC) “active; positive”; (Species: RAT, Strain/Sex: F344/MALE, Route: INHALATION, Dose: 0, 156, 312, 625 PPM 6 HR/D 5 D/WK FOR 104 WK (STUDY DURATION: 106 WK), Dose: 0, 156, 312, 625 PPM 6 HR/D 5 D/WK FOR 104 WK (STUDY DURATION: 106 WK), Tumor Site: Type of Lesion: KIDNEY(RENAL TUBULE): ADENOMA, LIVER: HEPATOCELLULAR CARCINOMA, HEPATOCELLULAR ADENOMA OR CARCINOMA) “active; positive”.

Take `CCCCN(CCCC(=O)O)N=O`: the carcinogen call is, setting by setting: (Species: MOUSE, Strain/Sex: B6D2F1/FEMALE, Route: ORAL, Dose: 0, 565 MG/L IN DRINKING WATER FOR 13 WK (STUDY DURATION: 28 WK), Tumor Site: Type of Lesion: URINARY BLADDER: TUMOR) “active; positive”; (Species: MOUSE, Strain/Sex: B6D2F1/MALE, Route: ORAL, Dose: 0, 565 MG/L IN DRINKING WATER FOR 13 WK (STUDY DURATION: 28 WK), Tumor Site: Type of Lesion: URINARY BLADDER: TUMOR) “active; positive”.

Take `O=NN1CCCC[C@H]1c1cccnc1`: for the setting “Species: MOUSE, Strain/Sex: STRAIN-A/FEMALE, Route: INTRAPERITONEAL, Dose: 0, 100 UMOL TOTAL DOSE ADMINISTERED IN SUBDOSES 3/WK FOR 7 WK (STUDY DURATION: 37 WK), Tumor Site: Type of Lesion: LUNG: TUMOR”, the carcinogen call is “active; positive”.

For the molecule `CC1CC2OC2CC1COC(=O)C1CC2OC2CC1C` (stereo not given), for the setting “Species: MOUSE, Route: DERMAL, Tumor Site: Type of Lesion: INTEGUMENTARY SYSTEM (SKIN)”, the carcinogen call is “active; positive”.

Consider `CC(N)=O`, for which the carcinogen call (Species: RAT, Strain/Sex: WISTAR/MALE, Route: ORAL, Dose: 1.25, 2.5, 5% IN DIET FOR ONE YR, Dose: 1.25, 2.5, 5% IN DIET FOR ONE YR, Tumor Site: Type of Lesion: LIVER: TRABECULAR CARCINOMA, ADENOCARCINOMA, HEPATOMA) was “active; positive”.

For the molecule `Nc1ccccc1C(=O)O`, the carcinogen call was “inactive; negative” (Species: MOUSE, Strain/Sex: B6C3F1/FEMALE, Route: ORAL, Dose: 0, 25000, 50000 PPM IN DIET, Dose: 0, 25000, 50000 PPM IN DIET); “inactive; negative” (Species: MOUSE, Strain/Sex: B6C3F1/MALE, Route: ORAL, Dose: 0, 25000, 50000 PPM IN DIET, Dose: 0, 25000, 50000 PPM IN DIET); “inactive; negative” (Species: RAT, Strain/Sex: F344/FEMALE, Route: ORAL, Dose: 0, 15000, 30000 PPM IN DIET, Dose: 0, 15000, 30000 PPM IN DIET); “inactive; negative” (Species: RAT, Strain/Sex: F344/MALE, Route: ORAL, Dose: 0, 15000, 30000 PPM IN DIET, Dose: 0, 15000, 30000 PPM IN DIET).

For the origin of these results see PubChem BioAssay AID1259411 (Chemical Carcinogenesis Research Information System (CCRIS), 2018).
